From article PMC8720025, “PTHG2 Reduces Bone Loss in Ovariectomized Mice by Directing Bone Marrow Mesenchymal Stem Cell Fate” (Stem Cells International, 2021) come the findings set out here.

In data set [1] the test system is CREB phosphorylation in BMSCs. The experiment in a line: Western blotting of CREB phosphorylation (cAMP-PKA signaling). In kind it is cell-based, C57/BL6 mice. The procedure: The unstimulated group was the control group. After the stimulation, the cells were digested, and RIPA cell lysate (containing protein phosphatase inhibitors) was added and centrifuged. 30 μg protein was separated with SDS-PAGE. The proteins were then shifted to the nitrocellulose membrane using a trans-Blot Turbo Transfer System (Bio-Rad Laboratories, Hercules, CA, USA). Membrane was sealed with 5% bovine serum albumin (BSA) for 1 h. Membrane and specific primary antibody were incubated overnight at 4°C. Then, membrane was disposed with fluorescently labeled secondary Goat anti-Rabbit IgG Antibody (Dylight) for 1 hour at 25°C. The protein bands were imaged with a Bio-Rad visual imaging system (Bio-Rad Laboratories, Hercules, CA), and the relative protein expression was analyzed by Image J.

Data set [2] is described as follows: CD spectroscopy, peptide helicity. The settings on record: 50 μM peptide in 50.0% TFE water solution, 25°C (legend: 20°C), from [θ]222. In kind it is physicochemical. The procedure: CD parameters was collected on a JASCO J-820 spectropolarimeter (JASCO Corp., Ltd). […] The sample ellipticity data were collected at 25°C and 195 nm. The helicity of the polypeptide is calculated by the following formula [36, 37]. (1) α=θ222/ θmax×100%.
[θ]222 was the molar ellipticity at the absorption wavelength of 222 nm, [θ]max = ([…] + 250 T) (1 − K/N), K = 4, and N was the number of amino acids of the polypeptide (n = 34).

Data set [3] has as its system OVX-induced bone loss in mice. The experiment in a line: OVX-induced bone loss model (micro-CT, histology, qPCR). The data set is classed as in vivo, C57/BL6 mice. Background: In qPCR the cycle at which signal appears reflects the starting amount.
Data set [4] deals with BMSCs. The experiment in a line: CCK-8 cell viability assay. In kind it is cell-based, C57/BL6 mice. Particulars: concentrations below 100 μM, 48 h and 96 h, absorbance 450 nm. As for the experimental part: BMSCs were extracted from the femoral and tibial marrow cavity of 5-week-old C57/BL6 mice and cultured in mouse bone marrow mesenchymal stem cell medium for 2-3 days. The new culture medium was changed until the adherent cells grew 95% confluence and cell passage, or subsequent experiments were carried out. The cell growth environment was 37°C, 5% CO2, and […].
Cell viability of BMSCs were tested using the CCK-8 (Dojindo Molecular Technology, Kumamoto, Japan) according to instruction. BMSCs were inoculated in a 96-well plate (5 × 10^3 cells per well) and hatched overnight. […] Then, cells were disposed with 10 μl of CCK-8 reagent for 2 hours. After incubation, the absorbance was measured at 450 nm in a Biotek Cytation 5 System (Biotek Instruments, Vermont, USA).

For data set [5], the system named is heart, liver, spleen, lung, and kidney of mice. The experiment in a line: In vivo tissue toxicity test (H&E staining of organs). Particulars: H&E staining after administration. The procedure:
(a) BMSC cell viability as assessed by CCK-8 assay following treatment without or with indicated concentrations of PTHG2 for 48 and 96 h. […] (c) The relative expression of Cebp-α and Perilipin following PTHG2 treatment was quantified by real-time PCR. (d) After pretreatment with H89, BMSC differentiated and stained with Alizarin red for 21 days. Supplementary Material 2: H&E staining of the heart, liver, spleen, lung, and kidney after administration of normal saline, PTH, and PTHG2. Click here for additional data file.

In data set [6] the test system is BMSCs. Description: Cell cycle analysis by PI staining and flow cytometry. Particulars: PI staining, flow cytometry. In kind it is cell-based, C57/BL6 mice. The procedure:
Cells were cultured with 10 μM BrdU for one hour and fixed in 70% ethanol at -20 C. After washing with phosphate/citric buffer (40 ml Na2HPO4 with 4 ml 0.1 M citric acid), the cells were incubated with anti-BrdU antibody for one hour, then stained with propidium iodide (PI). For PI/RNase staining, cells were incubated with 0.5 ml of PI/RNAse staining buffer (BD Pharmingen) at 25°C for 15 minutes, then analyzed by flow cytometry.
In general terms: In flow cytometry, cells or beads pass a laser one at a time.

In data set [7] the test system is BMSCs. Description: In vitro osteogenesis assay of BMSCs. The data set is classed as cell-based, C57/BL6 mice.
Data set [8] has as its system BMSCs. The experiment in a line: In vitro adipogenesis assay of BMSCs. The data set is classed as cell-based, C57/BL6 mice.
Setting [9] is: 20/40 μg·kg−1 intraperitoneal daily for 8 weeks, compared with OVX group.

Take `O=S(=O)(NCCNC/C=C/c1ccc(Br)cc1)c1cccc2cnccc12` [H89-2HCL, H89-2HCl, reference compound]: the “phosphorylation level of CREB” value in data set [1] (BMSCs pretreated with H89-2HCl for 1 hour, then stimulated with PTH (1-34)/PTHG2 for 6 hours) is given as “not increased”.

Turning to `CC[C@H](C)[C@H](NC(=O)[C@H](CCC(=O)O)NC(=O)[C@H](CO)NC(=O)[C@@H](NC(=O)[C@@H](N)CO)C(C)C)C(=O)N[C@@H](CCC(N)=O)C(=O)N[C@@H](CC(C)C)C(=O)N[C@@H](CCSC)C(=O)N[C@@H](Cc1c[nH]cn1)C(=O)N[C@@H](CC(N)=O)C(=O)N[C@@H](CC(C)C)C(=O)NCC(=O)N[C@@H](CCCCN)C(=O)N[C@@H](Cc1c[nH]cn1)C(=O)N[C@@H](CC(C)C)C(=O)N[C@@H](CC(N)=O)C(=O)N[C@@H](CO)C(=O)N[C@@H](CCSC)C(=O)N[C@@H](CCC(=O)O)C(=O)N[C@@H](CCCNC(=N)N)C(=O)N[C@H](C(=O)N[C@@H](CCC(=O)O)C(=O)N[C@@H](Cc1c[nH]c2ccccc12)C(=O)N[C@@H](CC(C)C)C(=O)N[C@@H](CCCNC(=N)N)C(=O)N[C@@H](CCCCN)C(=O)N[C@@H](CCCCN)C(=O)N[C@@H](CC(C)C)C(=O)N[C@@H](CCC(N)=O)C(=O)N[C@@H](CC(=O)O)C(=O)N[C@H](C(=O)N[C@@H](Cc1c[nH]cn1)C(=O)N[C@@H](CC(N)=O)C(=O)N[C@@H](Cc1ccccc1)C(=O)O)C(C)C)C(C)C` [PTH (1-34), Teriparatide, reference compound], the helicity in data set [2] is 38.5%. Besides, in data set [3] (setting [9]), the “bone trabeculae number (Tb. N), micro-CT of femur” value is “significantly increased” and the “bone volume fraction (BV/TV), micro-CT of femur” value was “significantly increased”.

In data set [2], `CC[C@H](C)[C@H](NC(=O)[C@H](CCC(=O)O)NC(=O)[C@H](CO)NC(=O)[C@@H](NC(=O)[C@@H](N)CO[C@@H]1O[C@H](CO)[C@@H](O)[C@H](O)[C@H]1NC(C)=O)C(C)C)C(=O)N[C@@H](CCC(N)=O)C(=O)N[C@@H](CC(C)C)C(=O)N[C@@H](CCSC)C(=O)N[C@@H](Cc1c[nH]cn1)C(=O)N[C@@H](CC(N)=O)C(=O)N[C@@H](CC(C)C)C(=O)NCC(=O)N[C@@H](CCCCN)C(=O)N[C@@H](Cc1c[nH]cn1)C(=O)N[C@@H](CC(C)C)C(=O)N[C@@H](CC(N)=O)C(=O)N[C@@H](CO)C(=O)N[C@@H](CCSC)C(=O)N[C@@H](CCC(=O)O)C(=O)N[C@@H](CCCNC(=N)N)C(=O)N[C@H](C(=O)N[C@@H](CCC(=O)O)C(=O)N[C@@H](Cc1c[nH]c2ccccc12)C(=O)N[C@@H](CC(C)C)C(=O)N[C@@H](CCCNC(=N)N)C(=O)N[C@@H](CCCCN)C(=O)N[C@@H](CCCCN)C(=O)N[C@@H](CC(C)C)C(=O)N[C@@H](CCC(N)=O)C(=O)N[C@@H](CC(=O)O)C(=O)N[C@H](C(=O)N[C@@H](Cc1c[nH]cn1)C(=O)N[C@@H](CC(N)=O)C(=O)N[C@@H](Cc1ccccc1)C(=O)O)C(C)C)C(C)C` [PTHG2] showed a helicity of 39.1%. In data set [3], the “number of FABP4-positive cells (IHC, distal femur)” value is listed as “reduced”. In addition, the “OCN positivity, immunofluorescence of distal femur” value in data set [3] (8 weeks of treatment) was “significant increase”. Further, the “number of lining cells on the trabecular bone surface (H&E)” value in data set [3] (8 weeks of treatment, compared to the OVX group, n = 6 per group) is “significantly increased”. The “expression of OCN gene in bone mRNA (qPCR)” value in data set [3] (bone of the upper limb, compared with the OVX group) is “significantly increased”. Further, the “inhibition of adipocyte generation (Fabp4 gene, qPCR)” value in data set [3] (compared with PTH (1-34)) is “same effect as PTH (1-34)”. In addition, the “number of adipocytes (vacuoles/cavitation) in H&E staining” value in data set [3] (metaphysis, compared with OVX group) was “significantly reduced”. Also, the “toxicity to BMSCs (CCK-8)” value in the data set on BMSCs [4] was “no toxicity”. In data set [5], the “tissue toxicity to heart, liver, spleen, lung, and kidney” value is reported as “no toxicity”. For the same molecule, the “effect on cell cycle” value in the data set on BMSCs [6] was “no effect”. Further, the “osteogenic differentiation activity of BMSCs (ALP staining)” value in the data set with BMSCs [7] (10 nM, 6 h/day, osteogenic medium, 7 days) is recorded as “significantly enhanced”. The “expression of Runx2 gene (qPCR)” value in the data set on BMSCs [7] (10 nM, osteogenic differentiation, compared with control group) was “higher than that in control group”. Moreover, the “ALP and RUNX2 protein levels (Western blotting)” value in the data set with BMSCs [7] (osteogenic differentiation, 3, 7, and 10 days, compared to the control group) was “significantly increased”. For the same molecule, in the data set on BMSCs [8] (adipogenic conditioned medium, 21 days, compared with the control), the “number of adipocytes (oil red staining)” value is given as “did not increase”. Also, in the data set on BMSCs [8] (adipogenic differentiation, compared with control group), the “adipogenic gene protein expression (Fabp4/PPARɣ/Adiponectin)” value is recorded as “resemble to that of the control group”. Besides, the “phosphorylation level of CREB” value in data set [1] (BMSCs starved 1 hour, stimulated with 10 μM peptide for 6 hours, without H89-2HCl) was “increased”.
